Data: article PMC3942289, “Characterization of Ten Heterotetrameric NDP-Dependent Acyl-CoA Synthetases of the Hyperthermophilic Archaeon Pyrococcus furiosus” (Archaea, 2014)

Biological target: T1, ACS5-G (Pyrococcus furiosus, UniProt E7FHP1+Q8TZY7)
T1 construct: gene PF1838
Conditions: reverse reaction; 20 mM acid, 1 mM ATP or GTP, 0.5 mM CoA, 2 mM MgCl2, pH 7.0, 80°C

T1 sequence (Q8TZY7 1-473): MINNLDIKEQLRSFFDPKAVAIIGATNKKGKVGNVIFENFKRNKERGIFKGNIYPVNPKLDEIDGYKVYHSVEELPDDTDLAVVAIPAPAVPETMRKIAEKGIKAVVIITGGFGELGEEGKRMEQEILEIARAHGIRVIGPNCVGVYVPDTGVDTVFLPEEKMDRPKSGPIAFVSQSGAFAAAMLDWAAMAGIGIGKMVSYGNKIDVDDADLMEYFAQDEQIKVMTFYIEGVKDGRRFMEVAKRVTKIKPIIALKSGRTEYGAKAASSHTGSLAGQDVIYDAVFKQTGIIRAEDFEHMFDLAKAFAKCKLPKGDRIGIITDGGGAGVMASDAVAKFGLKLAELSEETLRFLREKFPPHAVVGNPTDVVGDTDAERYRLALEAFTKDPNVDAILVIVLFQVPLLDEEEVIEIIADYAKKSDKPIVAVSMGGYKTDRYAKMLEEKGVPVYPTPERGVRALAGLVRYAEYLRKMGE
T1 sequence (E7FHP1 whole entry): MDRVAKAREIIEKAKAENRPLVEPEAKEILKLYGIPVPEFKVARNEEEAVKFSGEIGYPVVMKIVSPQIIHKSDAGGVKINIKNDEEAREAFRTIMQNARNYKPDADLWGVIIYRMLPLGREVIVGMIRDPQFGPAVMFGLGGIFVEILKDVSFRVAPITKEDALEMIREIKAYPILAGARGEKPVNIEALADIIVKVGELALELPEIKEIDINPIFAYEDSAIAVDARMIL

In the case of `C[C@H](O)C(=O)O` [lactate], the relative activity is reported as “ACS5 is the only enzyme that has significant activity with lactate”.
